# Experimental data as given in patent publication US8476036B2, “Nonluminogenic assay for living cells” (Promega Corporation, priority 2004, dated 2013).
# Marks after values point to notes of the source that are not given here. Numbered stars: 1 amine (or outer) side, 2 acyl side, 3 side chain; on linkers, the order of the positions; unused ones are H or OH. Square brackets hold non-standard residues; d marks the D form. Peptide text beside a SMILES is read from it. * marks the point of attachment. AFC = O=c1cc(C(F)(F)F)c2ccc(N*)cc2o1; Glutaryl = O=C(CCCC(=O)[*:2])[*:1]; AMC = Cc1cc(=O)oc2cc(N*)ccc12; Suc = O=C(CCC(=O)[*:2])[*:1]; Cbz = O=C(OCc1ccccc1)*
# What was measured:
# Type in all cases: cell-based
# HL-60 or Jurkat [1] = test: Protease retention substrate selectivity, untreated viable cells; design: key: None denotes no statistical activity above control population.; (+) to (+++++) denotes the range of activity above control population from modest to robust; (+) to (+++++) denotes the range of activity above control population from modest to robust; (+) to (+++++) denotes the range of activity above control population from modest to robust; (+) to (+++++) denotes the range of activity above control population from modest to robust; (+) to (+++++) denotes the range of activity above control population from modest to robust; settings: substrate cleavage activity above control in untreated viable cells; 15-30 minutes at 37° C.
# From the text: (§1) Ala-Ala-Phe-AMC was obtained from Promega. Z-Leu-Leu-Val-Tyr-aminoluciferin (LLVY corresponds to SEQ ID NO:18), Z-Leu-Arg-aminoluciferin, Z-Phe-Arg-aminoluciferin, Ala-Ala-Phe-aminoluciferin, (Ala-Ala-Phe)2-R110, and (Gly-Phe)2-R110 were synthesized by Promega Biosciences. Suc-Ala-Ala-Phe-AMC, H-Phe-AMC, H-Tyr-AMC, Glutyl-Ala-Ala-Phe-AMC (EMF corresponds to SEQ ID NO:32), H-Gly-Phe-AMC, Z-Gly-Ala-Met-AMC, Suc-Leu-Leu-Val-Tyr-AMC (LLVY corresponds to SEQ ID NO:18), D-Ala-Leu-Lys-AMC, H-Gly-Ala-AMC, H-Gly-Gly-AMC, Suc-Ala-Ala-Phe-AMC, Z-Arg-Leu-Arg-Gly-Gly-AMC (RLRGG corresponds to SEQ ID NO:29), Z-Leu-Arg-Gly-Gly-AMC (LRGG corresponds to SEQ ID NO:30) and Ac-Ala-Ala-Tyr-AMC were sourced from Bachem. Gly-Phe-AFC, Pro-Phe-Arg-AMC, Gly-Gly-Leu-AMC, and Ser-Tyr-AFC were obtained from Calbiochem. Z-Phe-Arg-AMC and Suc-Arg-Pro-Phe-His-Leu-Leu-Val-Tyr-AMC (RPHLLVY corresponds to SEQ ID NO:31) were purchased from Sigma.
# (§2) All substrates were solubilized in DMSO from 10 to 100 mM depending upon inherent solubility. Fluorescent substrates were diluted to 100 μM to 1 mM in 10 mM Hepes, pH 7.5 or matched cell culture medium with 10% serum and added in 1/10th volumes to lysed (freeze fractured, sonicated, or detergent) or untreated viable cells in white-walled, clear bottomed 96-well plates. HL-60 or Jurkat were used in the experimentation interchangeably because of their easily manipulated suspension phenotype. Plates were incubated for 15-30 minutes at 37° C. prior to measuring fluorescence by the CYTOFLUOR® II.
# (§3) Luminescent substrates were added to a luciferin detection cake (Promega V859A) resuspended in 2 ml 10 mM Hepes, pH 7.5 to 500 μM. ⅕^th volume of the proluminescent reaction mixes were added to lysed (freeze fractured, sonicated, or detergent) or untreated viable cells in white-walled, clear bottomed 96-well plates. Again, HL-60 or Jurkat were used in the experimentation interchangeably. Plates were incubated at 37° C. in a MeCour' circulating heat block controlled by a Caron 2050W exchange unit. Luminescence was measured between 15 and 30 minutes (signal steady state).
# (§4) A broad variety of proteolytic substrates were examined in an effort to characterize potential substrate preferences for protease release or retention in compromised or viable cells (see Table 4). […] Non-blocked substrates (H- and the like) were examined to include the contribution of aminopeptidase activities. From this panel, at least three proteolytic profiles emerged: an aminopeptidase-like activity preferring unblocked Ala-Ala-Phe tripeptide, a proteosomal (chymotrypsin-like) activity measured by release of blocked Leu-Leu-Val-Tyr (SEQ ID NO:18) peptides, and an exceedingly labile activity by Gly-Phe, Gly-Ala, Phe-, Tyr- or Gly-Gly-Leu substrates. The latter activities were only measurable in viable, intact cells. Of further significance is that several fluorophores or proluminescent labels can be used to detect these activities, ultimately allowing for enhanced downstream multiplexing flexibility.
# HL-60 or Jurkat [2] = test: Protease release substrate selectivity, lysed (freeze fractured, sonicated, or detergent) cells; design: key: None denotes no statistical activity above control population.; (+) to (+++++) denotes the range of activity above control population from modest to robust; (+) to (+++++) denotes the range of activity above control population from modest to robust; (+) to (+++++) denotes the range of activity above control population from modest to robust; (+) to (+++++) denotes the range of activity above control population from modest to robust; (+) to (+++++) denotes the range of activity above control population from modest to robust; settings: substrate cleavage activity above control in lysed cells; 15-30 minutes at 37° C.
# From the text: as §1, §2, §3, §4
# SK-MEL-28 cells = test: Live cell protease retention multiplexed with caspase 3/7 activity, SK-MEL-28; settings: SK-MEL-28, serial dilutions, 5 hours
# Method: SK-MEL-28 or ACHN cells were seeded into white-walled, clear bottomed 96 well plates at a density of 10,000 cells per well in 100 μl volumes and allowed to attach at 37° C. in 5% CO2 for a period of 2 hours. After attachment, 50 μl of medium was carefully removed and replaced with serial dilutions of either ionomycin or staurosporine in MEM+10% FBS. Medium only served as control. The plate was incubated for an additional 5 hours. A 1 mM solution of Gly-Phe-AFC was made in MEM and added to the wells in a 1/10th volume. Resulting fluorescence was measured using a CYTOFLUOR® II. Caspase-GIo™ 3/7 reagent was then added and luminescence measure using a BMG FLUOstar Optima.
compound,measurement,setting,value
"CC(N)C(=O)NC(C)C(=O)NC(Cc1ccccc1)C(=O)Nc1ccc2c(c1)Oc1cc(NC(=O)C(Cc3ccccc3)NC(=O)C(C)NC(=O)C(C)N)ccc1C21OC(=O)c2ccccc21 (stereo not drawn) [(Ala-Ala-Phe) 2 R110, (Ala-Ala-Phe)2-R110]",Retention,HL-60 or Jurkat [1],None
same,Release,HL-60 or Jurkat [2],+++++
CC(=O)NC(C)C(=O)NC(C)C(=O)NC(Cc1ccc(O)cc1)C(=O)Nc1ccc2c(C)cc(=O)oc2c1 (stereo not drawn) [Ac-Ala-Ala-Tyr-AMC] (Ac-Ala-Ala-Tyr-{AMC}; configuration not given here),Retention,HL-60 or Jurkat [1],None
same,Release,HL-60 or Jurkat [2],None
Cc1cc(=O)oc2cc(NC(=O)C(Cc3ccccc3)NC(=O)C(C)NC(=O)C(C)N)ccc12 (stereo not drawn) [Ala-Ala-Phe-AMC] (H-Ala-Ala-Phe-{AMC}; configuration not given here),Retention,HL-60 or Jurkat [1],None
same,Release,HL-60 or Jurkat [2],+++++
"CC(N)C(=O)NC(C)C(=O)NC(Cc1ccccc1)C(=O)Nc1ccc2nc(C3=NC(C(=O)O)CS3)sc2c1 (stereo not drawn) [Ala-Ala-Phe-Aminoluc, Ala-Ala-Phe-aminoluciferin]",Retention,HL-60 or Jurkat [1],None
same,Release,HL-60 or Jurkat [2],+++++
"Cc1cc(=O)oc2cc(NC(=O)[C@H](Cc3ccccc3)NC(=O)[C@H](C)NC(=O)[C@H](C)NC(=O)CCCC(=O)O)ccc12 [Gluty-Ala-Ala-Phe-AMC, Glutyl-Ala-Ala-Phe-AMC] (Glutaryl-Ala-Ala-Phe-{AMC})",Retention,HL-60 or Jurkat [1],None
same,Release,HL-60 or Jurkat [2],None
NCC(=O)N[C@@H](Cc1ccccc1)C(=O)Nc1ccc2c(C(F)(F)F)cc(=O)oc2c1 [Gly-Phe-AFC] (H-Gly-Phe-{AFC}),Retention,HL-60 or Jurkat [1],+++++
same,Release,HL-60 or Jurkat [2],None
"Cc1cc(=O)oc2cc(NC(=O)[C@H](Cc3ccccc3)NC(=O)CN)ccc12 [Gly-Phe-AMC, H-Gly-Phe-AMC] (H-Gly-Phe-{AMC})",Retention,HL-60 or Jurkat [1],++
same,Release,HL-60 or Jurkat [2],None
Cc1cc(=O)oc2cc(NC(=O)[C@H](CCCCN)NC(=O)[C@H](CC(C)C)NC(=O)[C@@H](C)N)ccc12 [H-D-Ala-Leu-Lys-AMC] (H-[dA]-Leu-Lys-{AMC}),Retention,HL-60 or Jurkat [1],None
same,Release,HL-60 or Jurkat [2],None
Cc1cc(=O)oc2cc(NC(=O)C(C)NC(=O)CN)ccc12 (stereo not drawn) [H-Gly-Ala-AMC],Retention,HL-60 or Jurkat [1],++
same,Release,HL-60 or Jurkat [2],None
Cc1cc(=O)oc2cc(NC(=O)CNC(=O)CN)ccc12 [H-Gly-Gly-AMC] (H-Gly-Gly-{AMC}),Retention,HL-60 or Jurkat [1],None
same,Release,HL-60 or Jurkat [2],None
Cc1cc(=O)oc2cc(NC(=O)[C@@H](N)Cc3ccccc3)ccc12 [H-Phe-AMC],Retention,HL-60 or Jurkat [1],+++
same,Release,HL-60 or Jurkat [2],None
Cc1cc(=O)oc2cc(NC(=O)[C@H](CCCN=C(N)N)NC(=O)[C@H](Cc3ccccc3)NC(=O)[C@@H]3CCCN3)ccc12 [H-Pro-Phe-Arg-AMC] (H-Pro-Phe-Arg-{AMC}),Retention,HL-60 or Jurkat [1],None
same,Release,HL-60 or Jurkat [2],None
Cc1cc(=O)oc2cc(NC(=O)[C@@H](N)Cc3ccc(O)cc3)ccc12 [H-Tyr-AMC],Retention,HL-60 or Jurkat [1],++
same,Release,HL-60 or Jurkat [2],None
N[C@@H](CO)C(=O)N[C@@H](Cc1ccc(O)cc1)C(=O)Nc1ccc2c(C(F)(F)F)cc(=O)oc2c1 [Ser-Tyr-AFC] (H-Ser-Tyr-{AFC}),Retention,HL-60 or Jurkat [1],None
same,Release,HL-60 or Jurkat [2],None
Cc1cc(=O)oc2cc(NC(=O)[C@H](Cc3ccccc3)NC(=O)[C@H](C)NC(=O)[C@H](C)NC(=O)CCC(=O)O)ccc12 [Suc-Ala-Ala-Phe-AMC] (Suc-Ala-Ala-Phe-{AMC}),Retention,HL-60 or Jurkat [1],None
same,Release,HL-60 or Jurkat [2],None
Cc1cc(=O)oc2cc(NC(=O)[C@H](Cc3ccc(O)cc3)NC(=O)[C@@H](NC(=O)[C@H](CC(C)C)NC(=O)[C@H](CC(C)C)NC(=O)CCC(=O)O)C(C)C)ccc12 [Suc-Leu-Leu-Val-Tyr-AMC] (Suc-LLVY-{AMC}),Retention,HL-60 or Jurkat [1],None
same,Release,HL-60 or Jurkat [2],+
Cc1cc(=O)oc2cc(NC(=O)CNC(=O)CNC(=O)[C@H](CCCN=C(N)N)NC(=O)[C@H](CC(C)C)NC(=O)[C@H](CCCN=C(N)N)NC(=O)OCc3ccccc3)ccc12 [Z-Arg-Leu-Arg-Gly-Gly-AMC],Retention,HL-60 or Jurkat [1],None
same,Release,HL-60 or Jurkat [2],None
CSCC[C@H](NC(=O)[C@H](C)NC(=O)CNC(=O)OCc1ccccc1)C(=O)Nc1ccc2c(C)cc(=O)oc2c1 [Z-Gly-Ala-Met-AMC] (Cbz-Gly-Ala-Met-{AMC}),Retention,HL-60 or Jurkat [1],None
same,Release,HL-60 or Jurkat [2],None
Cc1cc(=O)oc2cc(NC(=O)[C@H](CC(C)C)NC(=O)CNC(=O)CNC(=O)OCc3ccccc3)ccc12 [Z-Gly-Gly-Leu-AMC] (Cbz-Gly-Gly-Leu-{AMC}),Retention,HL-60 or Jurkat [1],++*
same,Release,HL-60 or Jurkat [2],None
"CC(C)C[C@H](NC(=O)OCc1ccccc1)C(=O)N[C@@H](CCCNC(=N)N)C(=O)Nc1ccc2nc(C3=N[C@@H](C(=O)O)CS3)sc2c1 [Z-Leu-Arg-Aluc, Z-Leu-Arg-aminoluciferin]",Retention,HL-60 or Jurkat [1],None
same,Release,HL-60 or Jurkat [2],None
Cc1cc(=O)oc2cc(NC(=O)CNC(=O)CNC(=O)[C@H](CCCN=C(N)N)NC(=O)[C@H](CC(C)C)NC(=O)OCc3ccccc3)ccc12 [Z-Leu-Arg-Gly-Gly-AMC] (Cbz-LRGG-{AMC}),Retention,HL-60 or Jurkat [1],None
same,Release,HL-60 or Jurkat [2],None
Cc1cc(=O)oc2cc(NC(=O)C(CCCN=C(N)N)NC(=O)C(Cc3ccccc3)NC(=O)OCc3ccccc3)ccc12 (stereo not drawn) [Z-Phe-Arg-AMC] (Cbz-Phe-Arg-{AMC}; configuration not given here),Retention,HL-60 or Jurkat [1],None^1
same,Release,HL-60 or Jurkat [2],None
"N=C(N)NCCCC(NC(=O)C(Cc1ccccc1)NC(=O)OCc1ccccc1)C(=O)Nc1ccc2nc(C3=NC(C(=O)O)CS3)sc2c1 (stereo not drawn) [Z-Phe-Arg-Aluc, Z-Phe-Arg-aminoluciferin]",Retention,HL-60 or Jurkat [1],None
same,Release,HL-60 or Jurkat [2],None
C[C@H](CCC(=O)O)C[C@H](C)C[C@H](C)C(=O)/C=C(\O)[C@H](C)C[C@H](C)C/C=C/[C@@H](C)[C@@H](O)[C@@H](C)[C@@H](O)C[C@@H]1CC[C@@](C)([C@H]2CC[C@@](C)([C@@H](C)O)O2)O1 [ionomycin],Cytotoxicity profile (live cell fluorescence and caspase 3/7 activity),SK-MEL-28 cells,necrotic-type profile
Suc-RPFHLLVY-{AMC} [S-R-P-F-H-L-L-V-Y-AMC],Retention,HL-60 or Jurkat [1],None
same,Release,HL-60 or Jurkat [2],None
